Results reported in the METLIN SMRT retention time set (Domingo-Almenara et al. 2019).

Assay: gradient 5% acetonitrile 3 min, to 50% in 2 min, to 85% in 15 min, held 3 min, 100 µL/min
Details: column: Zorbax Extend-C18 2.1 x 50 mm; eluents: water / acetonitrile, 0.1% formic acid
Outline: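 In both positive and negative ionization mode, a quadrupole time-of-flight mass spectrometer coupled to HPLC analyzed pure standards run in mixtures of ~100 molecules. The Zorbax Extend-C18 column (2.1 × 50 mm, 1.8 μm) was operated at 100 μL/min with water and acetonitrile, each containing 0.1% formic acid. The dead volume was 40 μL and the dwell volume 900 μL. Retention time came from adduct peaks that were computationally picked and individually inspected by hand.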

Row | SMILES | RP-LC retention time [s]
1 | CCC(C)N(CC(=O)N(Cc1ccco1)CC1CCCO1)C(=O)c1ccccc1OC (configuration not stated) | 805
2 | O=C(NCCS(=O)(=O)N1CCc2ccccc2C1)C1CC1 | 695
3 | Cc1ccc(NC(=O)C2CC(=O)N(c3n[nH]c4cccc(F)c34)C2)c(C)c1 (configuration not stated) | 770
4 | COc1cccc(NC(=O)NC2CCN(c3cc(C)cc(C)c3)C2=O)c1 (configuration not stated) | 870
5 | COc1cccc(N2CCCn3c2nc2c3c(=O)n(CC(=O)O)c(=O)n2C)c1 | 671
6 | Cc1ccsc1C(=O)N1CCC2(CC1)CC(N(C(=O)NC(C)C)C1CC1)CCO2 (configuration not stated) | 798
7 | COc1cc(NC(=O)NC(C)C(=O)N2CCc3ccccc32)cc(OC)c1 (configuration not stated) | 817
8 | C=CCN1C(=O)COc2ccc(-c3csc(NC(=O)c4ccccc4)n3)cc21 | 982
9 | CCCCCCN1CCN(c2cccc(Cl)c2)CC1 | 737
10 | COc1ccccc1-n1c(SCC(=O)Nc2cc(C)on2)nc2c(c1=O)SCC2 | 728
11 | COC(=O)c1c(C)c(C(=O)C(C)N(C(=O)c2ccccc2Cl)C2CCCCC2)c(C)n1C (configuration not stated) | 1160
12 | CCc1ccccc1NC(=O)C1CCCN1S(=O)(=O)c1cc2c(cc1C)NC(=O)CO2 (configuration not stated) | 821
13 | CCc1ccc(-n2nc(C)c3c(C(F)(F)F)cc(OCC(=O)NCc4ccco4)nc32)cc1 | 1300
14 | COc1ccc(N(Cc2nc3nc(C)c(Cl)c(C)n3n2)C(=O)c2ccco2)cc1 | 824
15 | COC(=O)c1ccc2nc(NC(=O)c3cc(C)oc3C)sc2c1 | 947
16 | Cc1cccc(NS(=O)(=O)c2cc3n(c2)CCCN(C)C3=O)c1C | 711
17 | Cc1c(C(=O)NC2CC2)cnn1-c1ccc(-c2nc(C3CC3)no2)cn1 | 825
18 | CCOc1ccccc1C(=O)N(C)CC1(C)CCOCC1 | 794
19 | CN(C)c1nc2cc(C(=O)NCc3ccncc3)sc2n1-c1ccccc1 | 1130

Row | SMILES | RP-LC retention time [s]
20 | COC(=O)C1=CN(c2ccc(F)cc2C)c2ccc(F)cc2S1(=O)=O | 920
21 | COc1ccc(C(C)NC(=O)c2cc(NC(C)=O)cc3nc(C)ccc23)cc1OC (configuration not stated) | 599
22 | Cc1ccc(NC(=O)CN2C(=O)C3CCCCN3c3ccc(S(=O)(=O)N(C)C)cc32)cc1 (configuration not stated) | 943
23 | CNC(=O)N1C[C@@H](CN(C)C)[C@H](NC(=O)C2(c3ccc(OC)cc3)CC2)C1 | 572
24 | COc1ccc(-c2cn3ccn(-c4ccc(F)cc4)c(=O)c3n2)cc1OC | 738
25 | COc1ccc(-c2nnc(-c3ccc(C)c(S(N)(=O)=O)c3)o2)cc1OC | 731
26 | CCn1nccc1-c1cccc(-c2noc(-c3ccc4cc[nH]c4c3)n2)c1 | 1140
27 | CCOc1ccc(CCNc2nc(-c3ccc(OC)cc3)no2)cc1OCC | 1020
28 | Cc1cc(C)cc(S(=O)(=O)N2CCc3c(c(-c4nnc(-c5ccccc5)o4)nn3C)C2)c1 | 1020
29 | CC(C)(C)c1ccc(C(=O)Nc2cc(-c3ccccn3)no2)cc1 | 1020
30 | CCOC(=O)c1cc(S(=O)(=O)N2CCCC2C(=O)NC(C)C)cn1C (configuration not stated) | 746
31 | O=C(NCC1CCCO1)C(=O)Nc1ccc(OC(F)(F)F)cc1 (configuration not stated) | 834
32 | Clc1cncc(N2CCNCC2)n1 | 614
33 | COC(=O)N1CCc2ccc(F)cc2C1C(=O)Nc1ccc(OC)c(Cl)c1 (configuration not stated) | 874
34 | Cc1cc(C)cc(N2CCC(NC(=O)c3ccc(C)s3)C2=O)c1 (configuration not stated) | 904
35 | COc1ccc(OCc2nnc3sc(-c4ccc5c(c4)OCCO5)nn23)cc1 | 906
36 | Cc1nc2c(C)cccn2c(=O)c1NC(=O)COc1ccc(Cl)cc1Cl | 838
37 | CO[C@@H]1[C@H](OC(=O)NC(=O)CCl)CC[C@]2(CO2)[C@H]1[C@@]1(C)O[C@@H]1CC=C(C)C | 692
38 | CCc1noc(NC(C)=O)c1-c1ccc(OC)c(S(=O)(=O)Nc2ccc(F)cc2Cl)c1 | 841

Row | SMILES | RP-LC retention time [s]
39 | O=c1oc2c(-c3ccc([N+](=O)[O-])cc3)cc(O)cc2s1 | 829
40 | O=C(NCCc1nc(-c2ccc3c(c2)OCO3)n[nH]1)c1ccc(F)cc1Cl | 692
41 | O=C(NC1CCCC1)N1CCC(Oc2ccc(-c3noc(C4CC4)n3)cc2)C1 (configuration not stated) | 904
42 | CNC(=O)[C@@H]1C[C@H](Oc2ccccc2)CN1C(=O)C1CC=CC1 | 710
43 | CN(C)c1cccc(-c2nc(-c3cn(Cc4ccc(F)cc4)nn3)no2)c1 | 1030
44 | CC[C@@H](CO)NC(=O)[C@@H]1C=C2c3cccc4[nH]cc(c34)C[C@H]2N(C)C1 | 616
45 | COc1ccc(OC)c(NS(=O)(=O)c2cc3n(c2)CCCNC3=O)c1 | 639
46 | O=C(Nc1ccc2c(c1)OCCO2)C1CCCN(c2cnc3nccnc3c2)C1 (configuration not stated) | 689
47 | CCCNC(=O)c1cnn(-c2cc(-c3nc(C4CC4)no3)ccn2)c1C | 911
48 | CCOc1ccc(CNC(=O)C2CCCN2S(=O)(=O)c2cc3c(cc2Cl)NC(=O)CO3)cc1 (configuration not stated) | 760
49 | COc1ccc(CN(Cc2ccccc2)Cc2cc(=O)n3ccc(C)cc3n2)cc1 | 681
50 | Cc1nc(-c2csc(S(=O)(=O)N3CCCC(C(=O)NCc4ccc(F)cc4)C3)c2)no1 (configuration not stated) | 892
51 | O=C(N[C@H]1C[C@@H]2C[C@H]1CN2C(=O)NCc1ccco1)c1ccccc1 | 652
52 | Cc1ccc(OCc2nnc(SCC(=O)Nc3nc(-c4ccccc4)cs3)o2)cc1 | 875
53 | CC(C)Oc1ccc(-c2noc(CCn3nc(-c4ccc(F)cc4)ccc3=O)n2)cc1 | 1100
54 | Cc1ccc(NC(=O)N2CCC(c3nc(C(=O)N4CCOCC4)c(C)o3)CC2)c(C)c1 | 709
55 | CC(=O)Nc1ccc(CCc2nc3ccc(C(=O)NCCC4=CCCCC4)cc3[nH]2)cc1 | 669
56 | CCN(c1ccc(OC)cc1)S(=O)(=O)c1ccc2c(c1)CCCC(=O)N2 | 804
57 | CC(C)Cn1cc(CCNC(=O)c2c(F)cccc2F)c2cccnc21 | 788

The next lines start with the values.

Row | RP-LC retention time [s] | SMILES
58 | 721 | O=C(NCc1ccc(Cl)cc1)c1nc(N2CCOCC2)c2ccccc2n1
59 | 981 | Cc1ccc(F)cc1S(=O)(=O)N1CCc2c(c(-c3nnc(-c4ccccc4F)o3)nn2C)C1
60 | 799 | Cc1c(C)n(-c2ccccc2)c2ncn(CC(=O)NC3CCCC3)c(=O)c12
61 | 653 | CCOc1ccc(C(O)CN2CCN(c3ccccc3)CC2)cc1 (configuration not stated)
62 | 639 | COc1ccc(-c2cn3c(CC(=O)N4CCN(c5ncccn5)CC4)csc3n2)cc1OC
63 | 660 | COc1cccc(-c2noc3ncnc(N4CCN(c5ccccn5)CC4)c23)c1
64 | 892 | O=C(Nc1ccc(C(=O)N2CCOCC2)cc1)c1cnn2c(C(F)F)cc(-c3ccccc3)nc12
65 | 950 | O=C(Cn1nc(N2CCCC2)c2ccccc2c1=O)Nc1ccc(F)c(F)c1
66 | 1020 | O=C(CCSc1ccccc1)N1CC(c2nc(-c3cccc(Cl)c3)no2)C1
67 | 1110 | COc1cc(NC(=O)Cn2nc(N3CCC(C)CC3)c3ccccc3c2=O)cc(OC)c1
68 | 720 | COc1ccc(S(=O)(=O)N2CCC(C(=O)Nc3nccs3)CC2)cc1
69 | 592 | Cc1c(Cl)cccc1NC(=O)N1CCc2nc[nH]c2C1
70 | 654 | CCOc1ccc(-n2c(CN3CCN(C(=O)NCC(C)C)CC3)nc3cccnc32)cc1
71 | 700 | Cc1oc(-c2[nH]ncc2C(=O)N2CCCC2)cc1S(=O)(=O)NCc1ccccc1
72 | 867 | CCN(C(=O)CC(C)S(=O)(=O)c1ccc2c(c1)CCN2C(=O)C1CC1)c1ccccc1 (configuration not stated)
73 | 773 | O=C(c1ccc2cc[nH]c2c1)N1CCN(C(=O)c2nnn3c2COC(c2ccccc2)C3)CC1 (configuration not stated)
74 | 857 | O=C(Cn1ccn2nc(-c3ccccc3)c(CO)c2c1=O)NCCC1=CCCCC1
75 | 774 | COc1cccc(NC(=O)C2CCCN(c3nnc4ccc(Cl)cn34)C2)c1 (configuration not stated)
76 | 556 | CCn1ncc(CN(C)C(=O)c2cn3ccccc3n2)c1C
77 | 628 | O=C(Cc1ccccc1Cl)N1CCN(c2ccc3nncn3n2)CC1
78 | 849 | O=C(c1c2c(nn1C1CCS(=O)(=O)C1)CCC2)N1CCC(Cc2ccccc2)CC1 (configuration not stated)
79 | 571 | CN(C)CCNC(=O)C1CCN(c2ccc(-c3cccs3)nn2)CC1
80 | 695 | COc1ccc(N2C=C(C(=O)N3CCOCC3)S(=O)(=O)c3ccccc32)cc1OC
81 | 529 | Cn1c(CNC(=O)C2CCc3nc(N4CCCC4)ncc3C2)nc2ccccc21 (configuration not stated)
82 | 836 | O=C(c1ccc2c(c1)OCO2)N1CCN(c2cc(-c3ccc(Cl)cc3)[nH]n2)CC1
83 | 657 | Cc1ccc2nc(-c3cccc(S(=O)(=O)N4CCCC4)c3)cn2c1
84 | 885 | O=C(CN1C(=O)CCCc2cc(S(=O)(=O)N3CCCC3)ccc21)NCc1ccccc1
85 | 821 | Cc1cc(N2CCN(S(=O)(=O)c3cc(F)ccc3F)CC2)nc(NC2CCCCC2)n1
86 | 731 | CC(=O)N1CCc2ccccc2C1C(=O)NCc1ccc2c(c1)OCO2 (configuration not stated)
87 | 950 | CCN1C(=O)C2(CCN(C(=O)C3CCCCC3)CC2)c2ccccc21
